Reference: ChEMBL document CHEMBL4354844, “Discovery of Balovaptan, a Vasopressin 1a Receptor Antagonist for the Treatment of Autism Spectrum Disorder” (J Med Chem, 2020)
Calls of active or inactive are those of the source. No cut-off for these calls is given here.

Legend:
[1] = tested on: Rattus norvegicus; experiment: Neuroprotective activity in stress hyperresponsive Fischer F344 rat assessed as change in perfusion in dorsal hippocampus at 30 mg/kg, iv administered as bolus dose via catheter by ASL-based MRI analysis; assay type: functional, organism-based
[2] = tested on: Rattus norvegicus; experiment: In vivo receptor occupancy at V1a receptor in stress hyperresponsive Fischer F344 rat at 30 mg/kg, iv administered as bolus dose via catheter; assay type: functional
[3] = Protein binding in human plasma assessed as unbound fraction; assay type: ADME, cell-free
[4] = Selectivity ratio of Kb for antagonist activity at human V2 receptor to Kb for antagonist activity at human Gq5s-coupled V1a receptor expressed in CHO cells
[5] = tested on: Rattus norvegicus; experiment: Neuroprotective activity in stress hyperresponsive Fischer F344 rat assessed as change in perfusion in caudate putamen at 30 mg/kg, iv administered as bolus dose via catheter by ASL-based MRI analysis; assay type: functional, organism-based
[6] = tested on: Rattus norvegicus; experiment: Neuroprotective activity in stress hyperresponsive Fischer F344 rat assessed as increase in perfusion in raphe nuclei at 30 mg/kg, iv administered as bolus dose via catheter by ASL-based MRI analysis; assay type: functional, organism-based
[7] = Selectivity ratio of Kb for antagonist activity at human […] receptor to Kb for antagonist activity at human Gq5s-coupled V1a receptor expressed in CHO cells
[8] = tested on: Rattus norvegicus; experiment: Neuroprotective activity in stress hyperresponsive Fischer F344 rat assessed as change in perfusion in inferior colliculi at 30 mg/kg, iv administered as bolus dose via catheter by ASL-based MRI analysis; assay type: functional, organism-based
[9] = Oral bioavailability in rat; assay type: ADME, organism-based; settings: in vivo
[10] = Volume of distribution in rat; assay type: ADME; settings: in vivo
[11] = tested on: Rattus norvegicus; experiment: Neuroprotective activity in stress hyperresponsive Fischer F344 rat assessed as change in perfusion in visual cortex at 30 mg/kg, iv administered as bolus dose via catheter by ASL-based MRI analysis relative to control; assay type: functional
[12] = tested on: Rattus norvegicus; experiment: Neuroprotective activity in iv dosed stress hyperresponsive Fischer F344 rat assessed as improvement in neural activity pattern administered as bolus dose via catheter by ASL-based MRI analysis; assay type: functional, organism-based
[13] = Oral bioavailability in cynomolgus monkey; assay type: ADME, organism-based, Macaca fascicularis; settings: in vivo
[14] = tested on: Rattus norvegicus; experiment: Neuroprotective activity in stress hyperresponsive Fischer F344 rat assessed as increase in perfusion in ventral tegmental area at 30 mg/kg, iv administered as bolus dose via catheter by ASL-based MRI analysis; assay type: functional, organism-based
[15] = target: MDR1 (ABCB1, P-glycoprotein) (Homo sapiens, UniProt P08183); experiment: Substrate activity at human MDR1 expressed in LLC-PK1 cells assessed as efflux ratio of permeability at 1 uM measured after 3.5 hrs by lucifer yellow based scintillation counting or HPLC method; assay type: ADME, cell-based
[16] = species on record: Homo sapiens; experiment: Selectivity ratio of Kb for antagonist activity at recombinant human 5HT2B receptor expressed in CHOK1 cells to Kb for antagonist activity at human Gq5s-coupled V1a receptor expressed in CHO cells; assay type: cell-based
[17] = tested on: Rattus norvegicus; experiment: Neuroprotective activity in stress hyperresponsive Fischer F344 rat assessed as change in perfusion in medial prefrontal at 30 mg/kg, iv administered as bolus dose via catheter by ASL-based MRI analysis relative to control; assay type: functional
[18] = tested on: Rattus norvegicus; experiment: Neuroprotective activity in stress hyperresponsive Fischer F344 rat assessed as change in perfusion in primary motor cortex at 30 mg/kg, iv administered as bolus dose via catheter by ASL-based MRI analysis relative to control; assay type: functional
[19] = Volume of distribution in cynomolgus monkey; assay type: ADME, Macaca fascicularis; settings: in vivo
[20] = tested on: Rattus norvegicus; experiment: Neuroprotective activity in stress hyperresponsive Fischer F344 rat assessed as change in perfusion in superior colliculi at 30 mg/kg, iv administered as bolus dose via catheter by ASL-based MRI analysis; assay type: functional, organism-based
[21] = tested on: Rattus norvegicus; experiment: Neuroprotective activity in stress hyperresponsive Fischer F344 rat assessed as increase in perfusion in entorhinal piriform cortex at 30 mg/kg, iv administered as bolus dose via catheter by ASL-based MRI analysis; assay type: functional, organism-based
[22] = tested on: Rattus norvegicus; experiment: Neuroprotective activity in stress hyperresponsive Fischer F344 rat assessed as increase in perfusion in substantia nigra at 30 mg/kg, iv administered as bolus dose via catheter by ASL-based MRI analysis; assay type: functional, organism-based
[23] = target: Vasopressin V1a receptor (Homo sapiens) (UniProt P37288); experiment: Antagonist activity at human Gq5s-coupled V1a receptor expressed in CHO cells assessed as inhibition of vasopressin-induced calcium flux preincubated for 20 mins followed by vasopressin addition and measured for 5 mins by fluo-4-AM dye based FLIPR assay; assay type: functional, cell-based
[24] = target: 5-hydroxytryptamine receptor 2B (Homo sapiens) (UniProt P41595); experiment: Antagonist activity at recombinant human 5HT2B receptor expressed in CHOK1 cells assessed as inhibition of serotonin-induced inositol phosphate production measured after 30 mins by HTRF assay; assay type: functional, cell-based
[25] = Volume of distribution in dog; assay type: ADME, Canis lupus familiaris; settings: in vivo
[26] = tested on: Rattus norvegicus; experiment: Neuroprotective activity in stress hyperresponsive Fischer F344 rat assessed as increase in perfusion in amygdala at 30 mg/kg, iv administered as bolus dose via catheter by ASL-based MRI analysis; assay type: functional, organism-based
[27] = tested on: Rattus norvegicus; experiment: Neuroprotective activity in stress hyperresponsive Fischer F344 rat assessed as increase in perfusion in hypothalamus at 30 mg/kg, iv administered as bolus dose via catheter by ASL-based MRI analysis; assay type: functional, organism-based

Chain of 5-hydroxytryptamine receptor 2B (Homo sapiens) (P41595 whole entry): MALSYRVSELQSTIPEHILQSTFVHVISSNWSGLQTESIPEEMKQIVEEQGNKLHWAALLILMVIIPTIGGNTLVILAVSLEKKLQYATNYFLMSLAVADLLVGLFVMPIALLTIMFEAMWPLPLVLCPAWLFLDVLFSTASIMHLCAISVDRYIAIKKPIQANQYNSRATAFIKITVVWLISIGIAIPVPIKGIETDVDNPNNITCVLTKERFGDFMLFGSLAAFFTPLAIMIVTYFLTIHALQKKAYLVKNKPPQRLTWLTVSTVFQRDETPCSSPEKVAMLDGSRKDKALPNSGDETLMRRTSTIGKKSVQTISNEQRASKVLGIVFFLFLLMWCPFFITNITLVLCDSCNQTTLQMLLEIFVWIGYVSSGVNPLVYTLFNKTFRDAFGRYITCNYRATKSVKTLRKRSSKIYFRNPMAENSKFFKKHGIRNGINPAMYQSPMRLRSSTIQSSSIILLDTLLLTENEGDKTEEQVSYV
Chain of Vasopressin V1a receptor (Homo sapiens) (P37288 whole entry, looked up): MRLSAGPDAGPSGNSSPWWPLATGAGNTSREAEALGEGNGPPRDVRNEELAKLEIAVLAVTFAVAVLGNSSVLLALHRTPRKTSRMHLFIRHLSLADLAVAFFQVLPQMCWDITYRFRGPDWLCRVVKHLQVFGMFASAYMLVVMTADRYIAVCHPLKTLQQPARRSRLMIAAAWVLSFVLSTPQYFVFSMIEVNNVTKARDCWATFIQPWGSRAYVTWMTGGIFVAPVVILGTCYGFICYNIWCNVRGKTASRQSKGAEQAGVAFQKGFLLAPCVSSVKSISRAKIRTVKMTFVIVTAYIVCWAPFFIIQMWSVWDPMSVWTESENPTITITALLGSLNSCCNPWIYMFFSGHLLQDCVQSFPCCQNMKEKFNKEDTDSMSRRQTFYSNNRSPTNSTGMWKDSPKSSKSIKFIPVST
Chain of MDR1 (ABCB1, P-glycoprotein) (P08183 whole entry): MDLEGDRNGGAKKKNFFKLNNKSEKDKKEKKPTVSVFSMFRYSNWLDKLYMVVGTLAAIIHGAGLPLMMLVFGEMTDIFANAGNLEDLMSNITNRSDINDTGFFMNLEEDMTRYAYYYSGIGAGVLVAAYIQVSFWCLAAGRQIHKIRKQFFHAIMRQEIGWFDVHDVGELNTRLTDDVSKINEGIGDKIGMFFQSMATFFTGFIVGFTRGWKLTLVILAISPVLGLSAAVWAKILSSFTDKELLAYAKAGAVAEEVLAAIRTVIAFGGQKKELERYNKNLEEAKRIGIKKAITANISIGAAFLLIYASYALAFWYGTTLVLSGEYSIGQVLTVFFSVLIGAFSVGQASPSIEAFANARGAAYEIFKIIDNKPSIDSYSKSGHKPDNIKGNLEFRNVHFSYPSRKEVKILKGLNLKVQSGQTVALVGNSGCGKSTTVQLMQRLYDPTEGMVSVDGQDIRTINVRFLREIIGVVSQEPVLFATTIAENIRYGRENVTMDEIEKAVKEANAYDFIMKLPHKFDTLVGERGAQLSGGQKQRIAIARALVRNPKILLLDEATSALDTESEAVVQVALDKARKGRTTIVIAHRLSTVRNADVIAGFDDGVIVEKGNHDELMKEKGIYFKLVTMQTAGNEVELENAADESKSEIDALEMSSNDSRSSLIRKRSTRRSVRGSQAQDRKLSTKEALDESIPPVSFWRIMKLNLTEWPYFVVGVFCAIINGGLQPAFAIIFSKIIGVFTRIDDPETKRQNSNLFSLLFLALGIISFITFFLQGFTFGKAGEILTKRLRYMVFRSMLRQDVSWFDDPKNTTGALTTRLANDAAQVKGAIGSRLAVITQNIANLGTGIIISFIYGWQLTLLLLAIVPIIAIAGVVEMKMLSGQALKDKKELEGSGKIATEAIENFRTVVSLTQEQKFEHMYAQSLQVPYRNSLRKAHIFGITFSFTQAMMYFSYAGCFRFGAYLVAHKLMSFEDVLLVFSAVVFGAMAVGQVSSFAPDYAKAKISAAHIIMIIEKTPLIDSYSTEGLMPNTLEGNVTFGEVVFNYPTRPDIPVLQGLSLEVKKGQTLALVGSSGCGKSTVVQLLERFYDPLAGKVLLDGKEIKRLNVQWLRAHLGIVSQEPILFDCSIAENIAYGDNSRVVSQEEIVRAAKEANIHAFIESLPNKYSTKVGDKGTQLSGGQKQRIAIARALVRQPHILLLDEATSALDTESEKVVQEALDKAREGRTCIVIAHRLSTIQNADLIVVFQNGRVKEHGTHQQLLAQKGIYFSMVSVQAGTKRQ

In the case of CN1Cc2cc(Cl)ccc2-n2c(nnc2[C@H]2CC[C@H](Oc3ccccn3)CC2)C1 [BALOVAPTAN], the Activity [1] is reported as “Active”, the Occ [2] is reported as over 90% and the fraction unbound [3] is reported as 0.13. For the same compound, the Selectivity ratio [4] was 3888, the Activity [5] was “Active” and the Activity [6] was “Active”. For the same compound, the Selectivity ratio [7] was 2735, the Activity [8] was “Active” and the bioavailability [9] was 40%. The Vd [10] was 0.5 to 1.3 L/kg, the Activity [11] was -20% and the Activity [12] was “Dose-dependent effect”. The bioavailability [13] was 130%, the Activity [14] was “Active” and the efflux ratio at 3.5 h, 1 µM [15] was under 2. For the same compound, the Selectivity ratio [16] was 938, the Activity [17] was -20% and the Activity [18] was -20%. For the same compound, the Vd [19] was 0.5 to 1.3 L/kg, the Activity [20] was “Active” and the Activity [21] was “Active”. The Activity [22] was “Active”, the Kb [23] was 0.39 nM and the Kb [24] was 366 nM. The Vd [25] was 0.5 to 1.3 L/kg, the Activity [26] was “Active” and the Activity [27] was “Active”.
